Among the data in patent US10047105B2, “Gyrase inhibitors” (Merck Sharp & Dohme Corp., priority 2009, dated 2018) are MIC, SA and MIC Spn52 values, retold here.

Converted amounts (≈) assume the structure as drawn.

One test has as its system S. aureus ATCC 13709. Description: MIC, antibacterial potency, S. aureus. The format is cell-based. Particulars: S. aureus.
For the next test, the system named is S. pneumoniae ATCC 51916. The test is described as follows: MIC, S. pneumoniae. The test is classed as cell-based. Particulars: S. pneumoniae.

`CCc1[nH]c2nc(Sc3cnc4nccnc4c3)nc(N3CCc4nc(N)sc4C3)c2c1Cl` [700,456] yielded an MIC, SA in the test on S. aureus ATCC 13709 of at most 0.5 µg/mL. The compound also showed an MIC Spn52 in the test with S. pneumoniae ATCC 51916 of 4 µg/mL (≈ 8.06 µM).
The compound `CCc1[nH]c2nc(Sc3cnc4nccnc4c3)nc(NC[C@H](C)O)c2c1Cl` [700,457] gave an MIC, SA in the test on S. aureus ATCC 13709 of 1 µg/mL (≈ 2.4 µM). Besides, the MIC Spn52 in the test on S. pneumoniae ATCC 51916 was found to be 2 µg/mL (≈ 4.81 µM).
Take `CCc1[nH]c2nc(Oc3cncnc3)nc(N3CC(O)C3)c2c1Cl.O=C(O)C(F)(F)F` [700,458]: the MIC, SA against S. aureus ATCC 13709 amounted to 2 µg/mL. Also, the MIC Spn52 in the test on S. pneumoniae ATCC 51916 turned out to be 8 µg/mL.
As for `CCc1[nH]c2nc(Oc3cccnc3)nc(N3CCN(C(C)=O)CC3)c2c1Cl.O=C(O)C(F)(F)F` [700,459], in the test on S. aureus ATCC 13709, the MIC, SA is 16 µg/mL. The compound also yielded an MIC Spn52 in the test with S. pneumoniae ATCC 51916 of 32 µg/mL.
The compound `CCc1[nH]c2nc(Cc3cccnc3)nc(N3CC(NC(=O)OC(C)(C)C)C3)c2c1Cl` [700,461] yielded an MIC, SA against S. aureus ATCC 13709 of 1 µg/mL (≈ 2.26 µM). The compound also showed an MIC Spn52 with S. pneumoniae ATCC 51916 above 64 µg/mL.
Compound `CCc1[nH]c2nc(Sc3cnc4nccnc4c3)nc(N3CCC[C@H]3CN)c2c1Cl` [700,462] gave an MIC, SA in the test with S. aureus ATCC 13709 above 64 µg/mL. In addition, in the test on S. pneumoniae ATCC 51916, the MIC Spn52 is 32 µg/mL (≈ 72.6 µM).
Regarding `CCc1[nH]c2nc(Sc3cnc4nccnc4c3)nc(N3CC(CN)C3)c2c1Cl` [700,463], the MIC, SA in the test on S. aureus ATCC 13709 amounted to 2 µg/mL (≈ 4.68 µM). The compound further came in with an MIC Spn52 against S. pneumoniae ATCC 51916 of 4 µg/mL (≈ 9.37 µM).
For `CCc1[nH]c2nc(Sc3cnc4c(N)nc(N)nc4c3)nc(N3CC(C(=O)O)C3)c2c1Cl.O=C(O)C(F)(F)F.O=C(O)C(F)(F)F` [700,464], the MIC, SA against S. aureus ATCC 13709 is above 64 µg/mL. Besides, the MIC Spn52 against S. pneumoniae ATCC 51916 is above 64 µg/mL.
Consider `CCc1[nH]c2nc(Oc3cccnc3)nc(N3CCN(c4cnccn4)CC3)c2c1Cl.O=C(O)C(F)(F)F` [700,465], for which the MIC, SA against S. aureus ATCC 13709 worked out at 8 µg/mL. This compound yielded an MIC Spn52 in the test with S. pneumoniae ATCC 51916 of 32 µg/mL.
As to `CCc1[nH]c2nc(Oc3cncnc3)nc(Oc3cncnc3)c2c1Cl.O=C(O)C(F)(F)F` [700,466], the MIC, SA against S. aureus ATCC 13709 turned out to be 4 µg/mL. The compound further gave an MIC Spn52 with S. pneumoniae ATCC 51916 of 16 µg/mL.
On to `CCc1[nH]c2nc(Sc3cnc4nccnc4c3)nc(N3CC(CN)C3)c2c1Br` [700,467], for which the MIC, SA in the test on S. aureus ATCC 13709 is 4 µg/mL (≈ 8.49 µM). In the test with S. pneumoniae ATCC 51916, this compound displayed an MIC Spn52 of 16 µg/mL (≈ 33.9 µM).
As to `CCc1[nH]c2nc(Sc3cnc4nccnc4c3)nc(N3CC(CNS(C)(=O)=O)C3)c2c1Br` [700,468], in the test with S. aureus ATCC 13709, the MIC, SA is at most 0.5 µg/mL. The compound further returned an MIC Spn52 in the test on S. pneumoniae ATCC 51916 of 1 µg/mL (≈ 1.82 µM).
`CCc1[nH]c2nc(Sc3cnc4nccnc4c3)nc(N3CC(N)C3)c2c1Br` [700,469] had an MIC, SA with S. aureus ATCC 13709 of 1 µg/mL (≈ 2.19 µM). Also, the MIC Spn52 against S. pneumoniae ATCC 51916 turned out to be 2 µg/mL (≈ 4.37 µM).
For `CCc1[nH]c2nc(Sc3cnc4nccnc4c3)nc(N3CC(NS(C)(=O)=O)C3)c2c1Br` [700,470], in that order: at most 0.5 µg/mL and 1 µg/mL (≈ 1.87 µM).
For `CCc1[nH]c2nc(Sc3cnc4sc(NC(C)=O)nc4c3)nc(N3CC(N)C3)c2c1Br` [700,471], in that order: 2 µg/mL (≈ 3.85 µM) and 8 µg/mL (≈ 15.4 µM).
In the test on S. aureus ATCC 13709, `CCc1[nH]c2nc(Sc3cnc4c(N)nc(N)nc4c3)nc(N(C)CCNC)c2c1Cl.O=C(O)C(F)(F)F.O=C(O)C(F)(F)F` [700,472] came in with an MIC, SA of 64 µg/mL. This compound showed an MIC Spn52 in the test with S. pneumoniae ATCC 51916 of 64 µg/mL.
For `CCOC(=O)Cc1nc(N)c2ncc(Sc3nc(N4CC(O)C4)c4c(Cl)c(CC)[nH]c4n3)cc2n1.O=C(O)C(F)(F)F.O=C(O)C(F)(F)F` [700,473], the MIC, SA against S. aureus ATCC 13709 came out at 32 µg/mL. In addition, in the test on S. pneumoniae ATCC 51916, the MIC Spn52 worked out at 64 µg/mL.
On to `CCOc1nc(Cc2cccnc2)nc2[nH]c(CC)c(Cl)c12` [700,474], for which the MIC, SA in the test with S. aureus ATCC 13709 came out at 8 µg/mL (≈ 25.3 µM). In the test on S. pneumoniae ATCC 51916, this compound registered an MIC Spn52 of 8 µg/mL (≈ 25.3 µM).
Regarding `CCOC(=O)c1nc2cc(Sc3nc(N4CC(O)C4)c4c(Br)c(CC)[nH]c4n3)cnc2n(C)c1=O` [700,475], the MIC, SA against S. aureus ATCC 13709 is above 64 µg/mL. The MIC Spn52 in the test with S. pneumoniae ATCC 51916 is above 64 µg/mL.
As to `CCOc1nc(Nc2cnc3c(c2)nnn3CC2CC2)nc2[nH]c(CC)c(Br)c12.O=C(O)C(F)(F)F` [700,476], the MIC, SA in the test on S. aureus ATCC 13709 was above 64 µg/mL. This compound came in with an MIC Spn52 against S. pneumoniae ATCC 51916 above 64 µg/mL.
Compound `CCc1[nH]c2nc(Oc3cncc(F)c3)nc(Oc3cncc(F)c3)c2c1Cl.O=C(O)C(F)(F)F` [700,477] returned an MIC, SA in the test with S. aureus ATCC 13709 of 1 µg/mL. The same compound returned an MIC Spn52 against S. pneumoniae ATCC 51916 of 16 µg/mL.
Compound `CCc1[nH]c2nc(Cc3cccnc3)nc(N(C)C)c2c1Cl` [700,478] came in with an MIC, SA in the test on S. aureus ATCC 13709 of 64 µg/mL (≈ 203 µM). For the same compound, the MIC Spn52 against S. pneumoniae ATCC 51916 is above 64 µg/mL.
In the test on S. aureus ATCC 13709, `CCc1[nH]c2nc(Cc3cccnc3)nc(Oc3cccnc3)c2c1Cl` [700,479] had an MIC, SA of 4 µg/mL (≈ 10.9 µM). The MIC Spn52 in the test with S. pneumoniae ATCC 51916 turned out to be 32 µg/mL (≈ 87.5 µM).
`CCc1[nH]c2nc(Sc3ccc4c(N)nc(N)nc4c3)nc(N3CCC3)c2c1Cl.O=C(O)C(F)(F)F.O=C(O)C(F)(F)F` [700,480] registered an MIC, SA against S. aureus ATCC 13709 of 16 µg/mL. Moreover, the MIC Spn52 against S. pneumoniae ATCC 51916 was above 64 µg/mL.
With `CCc1[nH]c2nc(Sc3cnc4nccnc4c3)nc(OC3CNC3)c2c1Br` [700,481], the MIC, SA against S. aureus ATCC 13709 came to 8 µg/mL (≈ 17.5 µM). The compound also yielded an MIC Spn52 with S. pneumoniae ATCC 51916 of 2 µg/mL (≈ 4.36 µM).
For the compound `CCc1[nH]c2nc(Nc3cnc4c(c3)nnn4C(C)C)nc(N3CC(O)C3)c2c1Br.O=C(O)C(F)(F)F` [700,482], the MIC, SA in the test with S. aureus ATCC 13709 is above 64 µg/mL. This compound also displayed an MIC Spn52 against S. pneumoniae ATCC 51916 above 64 µg/mL.
On to `CCOc1nc(Nc2ccc(Cl)c3ncccc23)nc2[nH]c(CC)c(Br)c12.O=C(O)C(F)(F)F` [700,483], for which the MIC, SA with S. aureus ATCC 13709 was 32 µg/mL. The MIC Spn52 against S. pneumoniae ATCC 51916 stood at 32 µg/mL.
`CCc1[nH]c2nc(Nc3cnc4c(c3)nnn4C(C)C)nc(N3CC(N)C3)c2c1Br.O=C(O)C(F)(F)F.O=C(O)C(F)(F)F` [700,484] gave an MIC, SA against S. aureus ATCC 13709 of 4 µg/mL. Moreover, the MIC Spn52 in the test on S. pneumoniae ATCC 51916 was 8 µg/mL.
Take `CCc1[nH]c2nc(Nc3cnc4c(c3)nnn4C(C)C)nc(N3CC(NC(=O)OC(C)(C)C)C3)c2c1Br.O=C(O)C(F)(F)F` [700,485]: in the test with S. aureus ATCC 13709, the MIC, SA turned out to be 4 µg/mL. Further, the MIC Spn52 in the test with S. pneumoniae ATCC 51916 is above 64 µg/mL.
Regarding `CCc1[nH]c2nc(Sc3cnc4nccnc4c3)nc(OC3CNC3)c2c1Cl` [700,486], the MIC, SA against S. aureus ATCC 13709 was 16 µg/mL (≈ 38.7 µM). In the test on S. pneumoniae ATCC 51916, this compound registered an MIC Spn52 of 8 µg/mL (≈ 19.3 µM).
For the compound `CCc1[nH]c2nc(Sc3cnc4nccnc4c3)nc(N3CC(CNS(C)(=O)=O)C3)c2c1Cl` [700,487], the MIC, SA in the test on S. aureus ATCC 13709 was at most 0.5 µg/mL. The MIC Spn52 in the test on S. pneumoniae ATCC 51916 is at most 0.5 µg/mL.
In the test with S. aureus ATCC 13709, `CCNC(=O)NC1CN(c2nc(Sc3cnc4nccnc4c3)nc3[nH]c(CC)c(Cl)c23)C1` [700,490] displayed an MIC, SA above 64 µg/mL. Also, the MIC Spn52 in the test on S. pneumoniae ATCC 51916 was determined as 1 µg/mL (≈ 2.07 µM).
For `CCNC(=O)NCC1CN(c2nc(Sc3cnc4nccnc4c3)nc3[nH]c(CC)c(Cl)c23)C1` [700,491], in that order: at most 0.5 µg/mL and 1 µg/mL (≈ 2.01 µM).
Take `CCc1[nH]c2nc(Sc3cnc4c(N)nc(N)nc4c3)nc(OCc3cccnc3)c2c1Cl.O=C(O)C(F)(F)F.O=C(O)C(F)(F)F` [700,492]: in the test on S. aureus ATCC 13709, the MIC, SA was 8 µg/mL. In the test with S. pneumoniae ATCC 51916, the MIC Spn52 is above 64 µg/mL.
In turn, `CCc1[nH]c2nc(Sc3cnc4c(N)nc(N)nc4c3)nc(OCCn3ccnc3)c2c1Cl.O=C(O)C(F)(F)F.O=C(O)C(F)(F)F` [700,493] displayed an MIC, SA in the test on S. aureus ATCC 13709 above 64 µg/mL. Besides, the MIC Spn52 with S. pneumoniae ATCC 51916 is above 64 µg/mL.
Turning to `CCc1[nH]c2nc(Sc3cnc4c(N)nc(C)nc4c3)nc(OCCn3ccnc3)c2c1Cl.O=C(O)C(F)(F)F` [700,494], the MIC, SA in the test with S. aureus ATCC 13709 was above 64 µg/mL. The MIC Spn52 with S. pneumoniae ATCC 51916 is above 64 µg/mL.
Regarding `CCc1[nH]c2nc(Cc3cccnc3)nc(N3CC(N)C3)c2c1Cl` [700,495], the MIC, SA against S. aureus ATCC 13709 amounted to 64 µg/mL (≈ 187 µM). The compound further yielded an MIC Spn52 against S. pneumoniae ATCC 51916 above 64 µg/mL.
Turning to `CCc1[nH]c2nc(Nc3cnc4c(c3)nnn4CC3CC3)nc(N3CC(S(=O)(=O)CC4CC4)C3)c2c1Br.O=C(O)C(F)(F)F` [700,496], the MIC, SA in the test with S. aureus ATCC 13709 was above 64 µg/mL. The compound further yielded an MIC Spn52 against S. pneumoniae ATCC 51916 above 64 µg/mL.
Regarding `CCc1[nH]c2nc(Sc3cnc4nccnc4c3)nc(N3CC[C@H](N(C)C)C3)c2c1Cl.O=C(O)C(F)(F)F` [700,497], in the test on S. aureus ATCC 13709, the MIC, SA is 1 µg/mL. Further, the MIC Spn52 in the test with S. pneumoniae ATCC 51916 amounted to 4 µg/mL.
